# Laboratory results from patent publication US11761894B2, “Silicon-rhodamine fluorescent probe containing hydrophobic group and use thereof” (AJOU UNIVERSITY INDUSTRY—ACADEMIC COOPERATION FOUNDATION, priority 2019, dated 2023).
# “Also recorded” adds a separate entry of the source.
# How the values were obtained:
# [1] = Photophysical properties (excitation/emission wavelength, absolute quantum yield, fluorescence intensity in PBS); format: physicochemical
# Experimental: All reactions were carried out under an atmosphere of nitrogen or argon in air-dried glassware with magnetic stirring. Air- and/or moisture-sensitive liquids were transferred with syringe. Organic solutions were concentrated by rotary evaporation at 25-60° C. at 15-30 torr. All solvents and common materials were purchased from suppliers and used without further purification. Column chromatography was carried out as “Flash Chromatography” using Biotage MPLC machine. ^1H NMR and ^13C NMR data were recorded on an JEOL ECZ-600R Magnetic Resonance System (600 MHz) in Ajou University. Recorded shifts are reported in parts per million (6): Chemical shift, multiplicity (s=singlet, d=doublet, t=triplet, q=quartet, m=multiplet, br=broad), coupling constant (J, Hz) and integration. Low resolution mass spectrometry (LRMS) was obtained by LC/MS system, Finnigan MSQplus Surveyer (Thermo Scientific) or 6120 Quadrupole LC/MS (Agilent Technologies). The progress of reaction was monitored using thin layer chromatography (TLC) (silica gel 60, F254 0.25 mm), and components were visualized by observation under UV light (254 and 365 nm) or by treating the TLC plates with Phosphonolybdic acid (PMA), KMnO4, or ninhydrin followed by heating. Cell culture reagents including fatal bovine serum, culture media, and antibiotic-antimycotic solution were purchased from GIBCO. MitoTracker Green, and Hoechst were purchased from Invitrogen. The culture dish and glassbottom dish were purchased from CORNING, and SPL. All spectra experiments were performed in a 1×1 cm quartz cuvette. Fluorescence emission spectra were recorded on JASCO FP-8200 spectrofluorometer, and UV absorption spectra were recorded on JASCO V-670 spectrophotometer. Absolute quantum yield was measured by QE-2000 (Otsuka Electronics).
# HeLa, and Hep3B cells = test: High-resolution live cell imaging of SiR-Mito 8 with MitoTracker green; format: cell-based, human; conditions: 1 μM, 60 min
# Experimental: (§1) (a) HeLa and Hep3B cells were incubated with MitoTracker Green (0.5 μM), and SiR-Mito 8 (1 μM) for 1 h. After washing 3 times with fresh media, fluorescent live cell images were acquired with LEICA DMi8 microscope. (MitoTracker green: FITC channel, SiR-Mito 8: Cy 5 channel, Scale bar: 15 μm); (b) Chang liver cells expressing mitochondrial YFP were incubated with SiR-Mito 8 (1 μM) for 1 h. After washing 3 times with fresh media, fluorescent live cell images were acquired with LEICA DMi8 microscope. (Mitochondrial-YFP: Rhodamine channel, Scale bar: 15 μm).
# Mitochondrial specificity in live cells labeled with SiR-Mito 8 and MitoTracker green was examined by high-resolution imaging.
# To this end, HeLa, and Hep3B cells were cultured in Dulbecco's modified eagle media (DMEM, GIBCO) containing 10% fetal bovine serum (FBS, GIBCO) and 1% penicillin (GIBCO) at 37° C. in a humidified incubator with 5% CO2. For the fluorescence microscope imaging, cells were harvested using TrypLE™ Express (GIBCO) and resuspended in fresh culture medium. Harvested cells were seeded on a confocal dish with a density of 4.0×10^4 cells/well. After 24 h incubation, cells were incubated with SiR-Mito 8 (1 μM) and Mitotracker green (0.5 uM) for 60 min. Cells were washed three times with 1×PBS and observed with inverted fluorescence microscope (DMi8, LEICA).
# [2] = test system: Mitochondria-YFP Chang liver cells; test: Mitochondrial targeting efficiency in Chang liver cells expressing mitochondrial YFP; format: cell-based, human; conditions: 1 μM, 60 min
# Experimental: as §1
# The mitochondrial targeting efficiency of SiR-Mito 8 in live cells was examined by high-resolution imaging.
# To this end, Overexpression plasmid for Mitochondria-YFP was obtained from Catholic University (Seoul, Korea) and transfected into Chang liver cells. Stable clones expressing Mitochondria-YFP was selected using 0.25 mg/ml G418. Next, Mitochondria-YFP infected Chang liver cells were cultured in Dulbecco's modified eagle media (DMEM, GIBCO) containing 10% fetal bovine serum (FBS, GIBCO) and 1% penicillin (GIBCO) at 37° C. in a humidified incubator with 5% CO2. For the fluorescence microscope imaging, cells were harvested using TrypLE™ Express (GIBCO) and resuspended in fresh culture medium. […] Cells were washed three times with 1×PBS and observed with inverted fluorescence microscope (DMi8, LEICA).
# [3] = test system: HeLa, Hep3B, HepG2 and Raw 264.7 cells; test: Cytotoxicity test (mitochondrial respiration viability assay, CellTiter 96 Aqueous One); format: cell-based, human; mouse; conditions: up to the 24 hr time point, moderate dose (less than 1 μM)
# Experimental: HeLa, Hep3B, HepG2 and Raw 264.7 cells were incubated with SiR-Mito 8, concentration range from 0.25 μM to 10 μM, for 1, 4, 12, and 24 h. Viability of the cells was normalized by DMSO control.
# In order to use SiR-Mito 8 as a potential NIR fluorescent tracer for mitochondrial staining, cytotoxicity of the probes was evaluated. HeLa, Hep3B, HepG2 and Raw 264.7 cells were incubated with SiR-Mito 8 at various concentrations (from 0.25 to 10.0 μM) and cytotoxicity was measured by a mitochondrial respiration viability assay.
# Specifically, HeLa human cervical cancer cells, Hep3B and HepG2 human hepatocellular carcinoma cells, and Raw264.7 mouse macrophage cells were seeded into 96-well cell culture plates per well and allowed to adhere to the plates overnight. The cells were incubated with cell culture media containing each concentration of SiR-Mito 8 (0.25 μM to 10 μM) for 1, 4, 12 or 24 h. After incubation, CellTiter 96® Aqueous One Solution Cell Proliferation Assay (Promega) was added into each well. After 2 h, 490 nm absorption was measured with Cytation 3 microplate reader (BioTek). Cytotoxicity of SiR-Mito 8 was tested in triplicate in a single experiment, with each experiment being repeated at least three times.
# Hep3B cells = test: Co-staining with Hoechst and Lysotracker Red in Hep3B cells; format: cell-based, human; conditions: 1 μM, 1 h
# Experimental: Liver cancer Hep3B cells were incubated with Hoechst (0.01 μg/ml), Lysotracker red (1 μM), and SiR-Mito 8 (1 μM) for 1 h. After washing 3 times with fresh media, fluorescence live cell images were acquired with a LEICA DMi8 microscope (Left). […] Scale bar: 50 μm.
# To verify the mitochondrial specificity of the SiR-Mito 8 probe, Hep3B human cancer cells were co-stained with a nuclear and a lysosomal tracer, in addition to SiR-Mito 8.
# To this end, 6.0×10^4 human HCC cell line Hep3B cells were seeded on confocal dish and incubated for 2 days. After 2 days, Hep3B cells were incubated with Hoechst, 1 μM Lysotracker Red, and 1 μM SiR-Mito 8 contained media for 1 h. After the incubation, Hep3B cells were washed with cell culture media for three times and observed with inverted fluorescence microscope (DMi8, LEICA).
substance,measurement,setting,value
"N-(10-(5-((cyclooctylmethyl) carbamoyl)-2-methylphenyl)-7-(dimethylamino)-5,5-dimethyldibenzo[b,e]silin-3(5H)-ylidene)-N-methylmethanaminium [SiR-Mito 8]",Em (emission wavelength),[1],668 nm
same,Ex (excitation wavelength),[1],651 nm
same,Φ (quantum yield),[1]; absolute quantum yield,0.33
same,Mitochondrial specificity in live cells (co-expression with MitoTracker green),"HeLa, and Hep3B cells",highly co-expressed
same,Mitochondrial targeting efficiency,[2],high mitochondrial targeting efficiency
same,Cytotoxicity,[3],no acute cytotoxicity
same,Mitochondrial specificity versus lysosome (Lysotracker Red co-staining),Hep3B cells,high mitochondrial specificity; also recorded: did not localize to other organelle such as lysosome
